These results are taken from publication PMC6150240, “Synthesis and 2D-QSAR Study of Active Benzofuran-Based Vasodilators” (Molecules : A Journal of Synthetic Chemistry and Natural …, 2017).

Structures are written as SMILES. Read-outs that look alike come from different tables or passages of the source.

The test system of data set [1] is isolated thoracic aortic rings of male Wistar rats. Briefly: Vasodilation activity screening: isolated thoracic aortic rings pre-contracted with norepinephrine hydrochloride. To be noted: Rattus norvegicus. On the procedure: The vasodilation activity screening procedures were carried out according to the standard reported techniques by testing the effects of the synthesized 2-alkoxy-4-aryl-6-(benzofuran-2-yl)-3-pyridinecarbonitriles 4a–x on isolated thoracic aortic rings of male Wistar rats (250–350 g). After light ether anesthesia, the rats were sacrificed by cervical dislocation. The aortae were immediately excised, freed of extraneous tissues and prepared for isometric tension recording. Aorta was cut into (3–5 mm width) rings and each ring was placed in a vertical chamber “10 mL jacketed automatic multi-chamber organ bath system (Model no. ML870B6/C, Panlab, Spain)” filled with Krebs solution composed of (in mM): NaCl, 118.0; KCl, 4.7; NaHCO3, 25.0; CaCl2, 1.8; NaH2PO4, 1.2; MgSO4, 1.2; glucose, 11.0 and oxygenated with carbogen gas (95% O2/5% CO2) at 37 ± 0.5 °C. Each aortic ring was mounted between two stainless steel hooks passed through its lumen. The lower hook was fixed between two plates, while the upper one was attached to a force displacement transducer (Model no. MLT0201, Panlab, Spain) connected to an amplifier (PowerLab, AD Instruments Pty., Ltd. Victoria, Australia), which is connected to a computer. The chart for Windows (v 3.4) software was used to record and elaborate data. Preparations were stabilized under 2 g resting tension during 2 h and then the contracture response to norepinephrine hydrochloride (10^−6 M) was measured before and after exposure to increasing concentrations of the tested synthesized compounds. The tested compounds were dissolved in dimethylsulfoxide (DMSO) as stock solution (10 mL of 0.005 M). […] This experiment was carried out in according to recommendations in the Guide for the Care and Use of Laboratory Animals of the National Institutes of Health (NIH publication No. 85–23, revised 1996) and under regulations of the Animal Care and Use of National Research Centre in Egypt.

Setting [2] is: norepinephrine hydrochloride 10^−6 M, three replicates, read-out: Potency (IC50), concentration necessary for 50% reduction of maximal norepinephrine hydrochloride induced contracture.
Where [3] appears, read: norepinephrine hydrochloride induced contracture, observed values as used in the QSAR, read-out: Observed IC50.

On to `COc1nc(-c2ccccc2)cc(-c2cn(-c3ccccc3)nc2-c2cc3ccccc3o2)c1C#N` [Compound 4a, 4-(3-(Benzofuran-2-yl)-1-phenyl-1H-pyrazol-4-yl)-2-methoxy-6-phenylpyridine-3-carbonitrile], for which the IC50 in data set [1] (setting [2]) and in data set [1] (setting [3]) was 281 µM throughout.
As a reminder, the melting point is the temperature, or range, at which the solid turns liquid. Regarding `CCOc1nc(-c2ccccc2)cc(-c2cn(-c3ccccc3)nc2-c2cc3ccccc3o2)c1C#N` [Compound 4b, 4-(3-(Benzofuran-2-yl)-1-phenyl-1H-pyrazol-4-yl)-2-ethoxy-6-phenylpyridine-3-carbonitrile], the melting point lay within 186 to 188 °C. In addition, in data set [1] (setting [2]), the IC50 came to 343 µM. Also, the IC50 in data set [1] (setting [3]) was found to be 343 µM.
For `COc1nc(-c2ccc(Cl)cc2)cc(-c2cn(-c3ccccc3)nc2-c2cc3ccccc3o2)c1C#N` [Compound 4c, 4-(3-(Benzofuran-2-yl)-1-phenyl-1H-pyrazol-4-yl)-6-(4-chlorophenyl)-2-methoxypyridine-3-carbonitrile], the IC50 in data set [1] (setting [2]) and in data set [1] (setting [3]) was 295 µM in each case.
Take `CCOc1nc(-c2ccc(Cl)cc2)cc(-c2cn(-c3ccccc3)nc2-c2cc3ccccc3o2)c1C#N` [Compound 4d, 4-(3-(Benzofuran-2-yl)-1-phenyl-1H-pyrazol-4-yl)-6-(4-chlorophenyl)-2-ethoxypyridine-3-carbonitrile]: the melting point is 199 to 201 °C. Further, the IC50 in data set [1] (setting [2]) was 397 µM. For the same compound, the IC50 in data set [1] (setting [3]) was determined as 397 µM.
Turning to `COc1nc(-c2ccc(Br)cc2)cc(-c2cn(-c3ccccc3)nc2-c2cc3ccccc3o2)c1C#N` [Compound 4e, 4-(3-(Benzofuran-2-yl)-1-phenyl-1H-pyrazol-4-yl)-6-(4-bromophenyl)-2-methoxypyridine-3-carbonitrile], the IC50 in data set [1] (setting [2]) and in data set [1] (setting [3]) was 253 µM each time.
For `CCOc1nc(-c2ccc(Br)cc2)cc(-c2cn(-c3ccccc3)nc2-c2cc3ccccc3o2)c1C#N` [Compound 4f, 4-(3-(Benzofuran-2-yl)-1-phenyl-1H-pyrazol-4-yl)-6-(4-bromophenyl)-2-ethoxypyridine-3-carbonitrile], the IC50 in data set [1] (setting [2]) and in data set [1] (setting [3]) was 267 µM throughout.
Regarding `COc1nc(-c2ccc(F)cc2)cc(-c2cn(-c3ccccc3)nc2-c2cc3ccccc3o2)c1C#N` [Compound 4g, 4-(3-(benzofuran-2-yl)-1-phenyl-1H-pyrazol-4-yl)-6-(4-fluorophenyl)-2-methoxypyridine-3-carbonitrile], the IC50 in data set [1] (setting [2]) and in data set [1] (setting [3]) was 275 µM each time.
Consider `CCOc1nc(-c2ccc(F)cc2)cc(-c2cn(-c3ccccc3)nc2-c2cc3ccccc3o2)c1C#N` [Compound 4h, 4-(3-(Benzofuran-2-yl)-1-phenyl-1H-pyrazol-4-yl)-2-ethoxy-6-(4-fluorophenyl)pyridine-3-carbonitrile], for which the melting point was 204 to 206 °C. In addition, the IC50 in data set [1] (setting [2]) worked out at 330 µM. For the same compound, the IC50 in data set [1] (setting [3]) worked out at 330 µM.
On to `COc1nc(-c2ccc(C)cc2)cc(-c2cn(-c3ccccc3)nc2-c2cc3ccccc3o2)c1C#N` [Compound 4i, 4-(3-(Benzofuran-2-yl)-1-phenyl-1H-pyrazol-4-yl)-2-methoxy-6-p-tolylpyridine-3-carbonitrile], for which the melting point was in the range of 258 to 260 °C. In addition, the IC50 in data set [1] (setting [2]) amounted to 330 µM. Also, the IC50 in data set [1] (setting [3]) came out at 330 µM.
In turn, `CCOc1nc(-c2ccc(C)cc2)cc(-c2cn(-c3ccccc3)nc2-c2cc3ccccc3o2)c1C#N` [Compound 4j, 4-(3-(Benzofuran-2-yl)-1-phenyl-1H-pyrazol-4-yl)-2-ethoxy-6-p-tolylpyridine-3-carbonitrile] registered a melting point of 202 to 204 °C. The IC50 in data set [1] (setting [2]) worked out at 452 µM. In data set [1] (setting [3]), the IC50 came to 452 µM.
Turning to `COc1ccc(-c2cc(-c3cn(-c4ccccc4)nc3-c3cc4ccccc4o3)c(C#N)c(OC)n2)cc1` [Compound 4k, 4-(3-(Benzofuran-2-yl)-1-phenyl-1H-pyrazol-4-yl)-2-methoxy-6-(4-methoxyphenyl)pyridine-3-carbonitrile], the melting point was 256 to 258 °C. Further, in data set [1] (setting [2]), the IC50 was found to be 428 µM. In data set [1] (setting [3]), the IC50 turned out to be 322 µM.
For the compound `CCOc1nc(-c2ccc(OC)cc2)cc(-c2cn(-c3ccccc3)nc2-c2cc3ccccc3o2)c1C#N` [Compound 4l, 4-(3-(Benzofuran-2-yl)-1-phenyl-1H-pyrazol-4-yl)-2-ethoxy-6-(4-methoxyphenyl)pyridine-3-carbonitrile], the IC50 in data set [1] (setting [2]) and in data set [1] (setting [3]) was 291 µM throughout.
In the case of `COc1nc(-c2ccc3c(c2)CCCC3)cc(-c2cn(-c3ccccc3)nc2-c2cc3ccccc3o2)c1C#N` [Compound 4m, 4-(3-(Benzofuran-2-yl)-1-phenyl-1H-pyrazol-4-yl)-6-(1,2,3,4-tetrahydronaphthalen-6-yl)-2-methoxypyridine-3-carbonitrile], the IC50 in data set [1] (setting [2]) and in data set [1] (setting [3]) was 286 µM each time.
Compound `CCOc1nc(-c2ccc3c(c2)CCCC3)cc(-c2cn(-c3ccccc3)nc2-c2cc3ccccc3o2)c1C#N` [Compound 4n, 4-(3-(Benzofuran-2-yl)-1-phenyl-1H-pyrazol-4-yl)-2-ethoxy-6-(1,2,3,4-tetrahydronaphthalen-6-yl)pyridine-3-carbonitrile] yielded a melting point of 213 to 215 °C. Further, in data set [1] (setting [2]), the IC50 was determined as 337 µM. The IC50 in data set [1] (setting [3]) was found to be 337 µM.
`COc1nc(-c2ccc[nH]2)cc(-c2cn(-c3ccccc3)nc2-c2cc3ccccc3o2)c1C#N` [Compound 4o, 4-(3-(Benzofuran-2-yl)-1-phenyl-1H-pyrazol-4-yl)-2-methoxy-6-(1H-pyrrol-2-yl)pyridine-3-carbonitrile] returned a melting point of 187 to 189 °C. Besides, the IC50 in data set [1] (setting [2]) came to 356 µM.
Compound `CCOc1nc(-c2ccc[nH]2)cc(-c2cn(-c3ccccc3)nc2-c2cc3ccccc3o2)c1C#N` [Compound 4p, 4-(3-(Benzofuran-2-yl)-1-phenyl-1H-pyrazol-4-yl)-2-ethoxy-6-(1H-pyrrol-2-yl)pyridine-3-carbonitrile] displayed a melting point of 208 to 210 °C. In addition, in data set [1] (setting [2]), the IC50 came to 400 µM. Further, in data set [1] (setting [3]), the IC50 worked out at 298 µM.
The like results for `COc1nc(-c2ccco2)cc(-c2cn(-c3ccccc3)nc2-c2cc3ccccc3o2)c1C#N` [Compound 4q, 4-(3-(Benzofuran-2-yl)-1-phenyl-1H-pyrazol-4-yl)-6-(furan-2-yl)-2-methoxypyridine-3-carbonitrile] were, in that order, 246 to 248 °C, 321 µM and 321 µM.
In the case of `CCOc1nc(-c2ccco2)cc(-c2cn(-c3ccccc3)nc2-c2cc3ccccc3o2)c1C#N` [Compound 4r, 4-(3-(Benzofuran-2-yl)-1-phenyl-1H-pyrazol-4-yl)-2-ethoxy-6-(furan-2-yl)pyridine-3-carbonitrile], the IC50 in data set [1] (setting [2]) and in data set [1] (setting [3]) was 254 µM each time.
Consider `COc1nc(-c2cccs2)cc(-c2cn(-c3ccccc3)nc2-c2cc3ccccc3o2)c1C#N` [Compound 4s, 4-(3-(Benzofuran-2-yl)-1-phenyl-1H-pyrazol-4-yl)-2-methoxy-6-(thiophen-2-yl)pyridine-3-carbonitrile], for which the IC50 in data set [1] (setting [2]) amounted to 268 µM.
Turning to `CCOc1nc(-c2cccs2)cc(-c2cn(-c3ccccc3)nc2-c2cc3ccccc3o2)c1C#N` [Compound 4t, 4-(3-(Benzofuran-2-yl)-1-phenyl-1H-pyrazol-4-yl)-2-ethoxy-6-(thiophen-2-yl)pyridine-3-carbonitrile], the results for the IC50 in data set [1] (setting [2]) and in data set [1] (setting [3]) were 298 µM and 400 µM, respectively.
`COc1nc(-c2ccccn2)cc(-c2cn(-c3ccccc3)nc2-c2cc3ccccc3o2)c1C#N` [Compound 4u, 4-(3-(Benzofuran-2-yl)-1-phenyl-1H-pyrazol-4-yl)-2-methoxy-6-(pyridin-2-yl)pyridine-3-carbonitrile] displayed a melting point of 275 to 277 °C. For the same compound, the IC50 in data set [1] (setting [2]) came to 333 µM. The IC50 in data set [1] (setting [3]) came to 333 µM.
With `CCOc1nc(-c2ccccn2)cc(-c2cn(-c3ccccc3)nc2-c2cc3ccccc3o2)c1C#N` [Compound 4v, 4-(3-(Benzofuran-2-yl)-1-phenyl-1H-pyrazol-4-yl)-2-ethoxy-6-(pyridin-2-yl)pyridine-3-carbonitrile], the melting point lay within 204 to 206 °C. The IC50 in data set [1] (setting [2]) is 370 µM. Further, the IC50 in data set [1] (setting [3]) stood at 370 µM.
Turning to `COc1nc(-c2nc3ccccc3n2C)cc(-c2cn(-c3ccccc3)nc2-c2cc3ccccc3o2)c1C#N` [Compound 4w, 4-(3-(Benzofuran-2-yl)-1-phenyl-1H-pyrazol-4-yl)-2-methoxy-6-(1-methyl-1H-benzo[d]imidazole-2-yl)pyridine-3-carbonitrile], the IC50 in data set [1] (setting [2]) and in data set [1] (setting [3]) was 223 µM throughout.
`CCOc1nc(-c2nc3ccccc3n2C)cc(-c2cn(-c3ccccc3)nc2-c2cc3ccccc3o2)c1C#N` [Compound 4x, 4-(3-(Benzofuran-2-yl)-1-phenyl-1H-pyrazol-4-yl)-2-ethoxy-6-(1-methyl-1H-benzo[d]-imidazol-2-yl)pyridine-3-carbonitrile]: the IC50 in data set [1] (setting [2]) and in data set [1] (setting [3]) was 299 µM in each case.
